Read-outs that look alike come from different tables or passages of the source.
Assay: Pharmacokinetic study
Assay type: in vivo
Conditions: SD rats; for AUC: serum liraglutide by ELISA, n = 5/group, mean ± SD
Protocol: SD rats (GemPharmatech Co., Ltd.) weighing 200–220 g were fasted overnight and randomly divided into five groups(n = 5/group): […] The first four groups were administered orally. After a single administration, blood was collected and centrifuged, and serum was collected. An ELISA Kit for liraglutide was used to measure the blood concentration of liraglutide. The assay was performed according to the instructions of the ELISA Kit for liraglutide. The processed samples were tested using a microplate reader (CYT5MV microplate reader, BioTek USA Botten Instruments Co., Ltd.), and the drug concentration was calculated by plotting the curve.

- BR (relative bioavailability) (oral (i.g.) versus subcutaneous liraglutide, dose-normalised AUC): 5.37%
- AUC (single oral administration): 1.06118 ± 0.05655 ng·h/mL
- BR (relative bioavailability) (subcutaneous injection, the reference): 100%
- AUC (Sprague-Dawley, rat, sc, single subcutaneous injection, read-out: AUC): 1.98 ± 0.109 ng·h/mL
SMILES: CCCCCCCCCCCCCCCC(=O)N[C@@H](CCC(=O)NCCCC[C@H](NC(=O)[C@H](C)NC(=O)[C@H](C)NC(=O)[C@H](CCC(N)=O)NC(=O)CNC(=O)[C@H](CCC(=O)O)NC(=O)[C@H](CC(C)C)NC(=O)[C@H](Cc1ccc(O)cc1)NC(=O)[C@H](CO)NC(=O)[C@H](CO)NC(=O)[C@@H](NC(=O)[C@H](CC(=O)O)NC(=O)[C@H](CO)NC(=O)[C@@H](NC(=O)[C@H](Cc1ccccc1)NC(=O)[C@@H](NC(=O)CNC(=O)[C@H](CCC(=O)O)NC(=O)[C@H](C)NC(=O)[C@@H](N)Cc1cnc[nH]1)[C@@H](C)O)[C@@H](C)O)C(C)C)C(=O)N[C@@H](CCC(=O)O)C(=O)N[C@@H](Cc1ccccc1)C(=O)N[C@H](C(=O)N[C@@H](C)C(=O)N[C@@H](Cc1c[nH]c2ccccc12)C(=O)N[C@@H](CC(C)C)C(=O)N[C@H](C(=O)N[C@@H](CCCNC(=N)N)C(=O)NCC(=O)N[C@@H](CCCNC(=N)N)C(=O)NCC(=O)O)C(C)C)[C@@H](C)CC)C(=O)O [liraglutide]

From paper PMC8765251, “Orally administered intelligent self-ablating nanoparticles: a new approach to improve drug cellular uptake and intestinal absorption” (Drug Delivery, 2022)
